Data published in US20230104936A1, “TRPML MODULATORS” (Casma Therapeutics, Inc., priority 2019, published 2023).

Tested on: TFEB
Experiment: TFEB nuclear translocation assay, HeLa wt cells
Format: cell-based
Settings: Homo sapiens, HeLa, 2 h, 2 hrs compound treatment, Table 1 does not say HeLa wt or TRPML1 KO
Procedure, shortened: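 Cells are plated overnight, exposed to compounds for 2 hrs at 37° C, fixed with 4% PFA, blocked, and stained overnight at 4° C with rabbit anti-TFEB. After Alexa 488 secondary and Hoechst, nuclei and a perinuclear ring are segmented to give a nuclear:ring intensity ratio and AC50.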

Question: For `COCC1(C)CCN(c2ccccc2NS(=O)(=O)c2cccc(C)c2)CC1` [Compound A-618, N-{2-[4-(methoxymethyl)-4-methylpiperidin-1-yl]phenyl}-3-methylbenzene-1-sulfonamide], which AC50 is on record?
Answer: 2.01 to 8 µM

Question: `COCC1(C)CCN(c2ccccc2NS(=O)(=O)c2cc(C3OCCO3)cs2)CC1` [Compound A-619, 4-(1,3-dioxolan-2-yl)-N-{2-[4-(methoxymethyl)-4-methylpiperidin-1-yl]phenyl}thiophene-2-sulfonamide] was tested. Which AC50 did it give?
Answer: 2.01 to 8 µM

Question: `COCC1(C)CCN(c2ccccc2NS(=O)(=O)c2ccc(C(F)F)cc2)CC1` [Compound A-620, 4-(difluoromethyl)-N-{2-[4-(methoxymethyl)-4-methylpiperidin-1-yl]phenyl}benzene-1-sulfonamide] was tested. Which AC50 did it give?
Answer: ≤ 2 µM

Question: How did the AC50 turn out when `COCC1(C)CCN(c2ccccc2NS(=O)(=O)c2ccc(C3CC3)cc2)CC1` [Compound A-621, 4-cyclopropyl-N-{2-[4-(methoxymethyl)-4-methylpiperidin-1-yl]phenyl}benzene-1-sulfonamide] was run?
Answer: ≤ 2 µM

Question: How did the AC50 turn out when `COCC1(C)CCN(c2ccccc2NS(=O)(=O)c2ccc(OC(F)(F)F)cc2)CC1` [Compound A-622, N-{2-[4-(methoxymethyl)-4-methylpiperidin-1-yl]phenyl}-4-(trifluoromethoxy)benzene-1-sulfonamide] was run?
Answer: 2.01 to 8 µM

Question: Which AC50 does the source give for `COCC1(C)CCN(c2ccccc2NS(=O)(=O)c2ccc(Br)cc2)CC1` [Compound A-623, 4-bromo-N-{2-[4-(methoxymethyl)-4-methylpiperidin-1-yl]phenyl}benzene-1-sulfonamide] here?
Answer: 2.01 to 8 µM

Question: Which AC50 does the source give for `COCC1(C)CCN(c2ccccc2NS(=O)(=O)C2=Cc3ccccc3OCC2)CC1` [Compound A-624, N-{2-[4-(methoxymethyl)-4-methylpiperidin-1-yl]phenyl}-2,3-dihydro-1-benzoxepine-4-sulfonamide] here?
Answer: 2.01 to 8 µM

Question: For `COCC1(C)CCN(c2ccccc2NS(=O)(=O)c2ccc3c(c2)COCC3)CC1` [Compound A-625, N-{2-[4-(methoxymethyl)-4-methylpiperidin-1-yl]phenyl}-3,4-dihydro-1H-2-benzopyran-7-sulfonamide], which AC50 is on record?
Answer: ≤ 2 µM

Question: Which AC50 does the source give for `CN(C)S(=O)(=O)c1ccc(S(=O)(=O)Nc2ccccc2N2CCN(C3CCCCC3(F)F)CC2)cc1` (stereo not drawn) [Compound A-626, N4-{2-[4-(2,2-difluorocyclohexyl)piperazin-1-yl]phenyl}-N1,N1-dimethylbenzene-1,4-disulfonamide] here?
Answer: ≤ 2 µM

Question: Which AC50 does the source give for `COCC1(C)CCN(c2ccccc2NS(=O)(=O)Cc2cccc(C(C)(C)C)c2)CC1` [Compound A-627, 1-(3-tert-butylphenyl)-N-{2-[4-(methoxymethyl)-4-methylpiperidin-1-yl]phenyl}methanesulfonamide] here?
Answer: 2.01 to 8 µM

Question: Which AC50 does the source give for `Cc1ccc(N2CCOCC2)c(NS(=O)(=O)Cc2ccccc2)c1` [Compound A-628, N-[5-methyl-2-(morpholin-4-yl)phenyl]-1-phenylmethanesulfonamide] here?
Answer: 2.01 to 8 µM

Question: Which AC50 does the source give for `Cc1ccc(N2CCOCC2)c(NS(=O)(=O)Cc2ccc3c(c2)COCC3)c1` [Compound A-629, 1-(3,4-dihydro-1H-2-benzopyran-7-yl)-N-[5-methyl-2-(morpholin-4-yl)phenyl]methanesulfonamide] here?
Answer: 2.01 to 8 µM

Question: For `COCC1(C)CCN(c2ccc(OC)cc2NS(=O)(=O)c2ccc3c(c2)CCC3)CC1` [Compound A-630, N-{5-methoxy-2-[4-(methoxymethyl)-4-methylpiperidin-1-yl]phenyl}-2,3-dihydro-1H-indene-5-sulfonamide], which AC50 is on record?
Answer: ≤ 2 µM

Question: How did the AC50 turn out when `CCOCCC1CCN(c2ccccc2NS(=O)(=O)c2ccc3c(c2)CC(C)(C)O3)CC1` [Compound A-631, N-{2-[4-(2-ethoxyethyl)piperidin-1-yl]phenyl}-2,2-dimethyl-2,3-dihydro-1-benzofuran-5-sulfonamide] was run?
Answer: ≤ 2 µM

Question: `CC1(C)Cc2cc(S(=O)(=O)Nc3ccccc3N3CCCC4(CCCOC4)C3)ccc2O1` (stereo not drawn) [Compound A-632, 2,2-dimethyl-N-(2-{2-oxa-8-azaspiro[5.5]undecan-8-yl}phenyl)-2,3-dihydro-1-benzofuran-5-sulfonamide] was tested. Which AC50 did it give?
Answer: ≤ 2 µM

Question: With `COCC1(C)CCN(c2ccccc2NS(=O)(=O)c2cccc(C(C)(C)OC)c2)CC1` [Compound A-633, N-{2-[4-(methoxymethyl)-4-methylpiperidin-1-yl]phenyl}-3-(2-methoxypropan-2-yl)benzene-1-sulfonamide] as the molecule, how does the AC50 read?
Answer: 2.01 to 8 µM

Question: For `COC(C)(C)c1cccc(S(=O)(=O)Nc2ccccc2N2CCC3(CC2)COC(C)(C)C3)c1` [Compound A-634, N-(2-{3,3-dimethyl-2-oxa-8-azaspiro[4.5]decan-8-yl}phenyl)-3-(2-methoxypropan-2-yl)benzene-1-sulfonamide], which AC50 is on record?
Answer: 2.01 to 8 µM

Question: For `CC1(C)CC2(CCN(c3ccccc3NS(=O)(=O)c3ccc4c(c3)CC(C)(C)O4)CC2)CO1` [Compound A-635, N-(2-{3,3-dimethyl-2-oxa-8-azaspiro[4.5]decan-8-yl}phenyl)-2,2-dimethyl-2,3-dihydro-1-benzofuran-5-sulfonamide], which AC50 is on record?
Answer: 2.01 to 8 µM

Question: For `CC1(C)Cc2cc(S(=O)(=O)Nc3ccccc3N3CCC(C(C)(F)F)CC3)ccc2O1` [Compound A-636, N-{2-[4-(1,1-difluoroethyl)piperidin-1-yl]phenyl}-2,2-dimethyl-2,3-dihydro-1-benzofuran-5-sulfonamide], which AC50 is on record?
Answer: ≤ 2 µM

Question: Which AC50 does the source give for `O=S(=O)(CCO)c1ccc(S(=O)(=O)Nc2ccccc2N2CCC(c3ccc(Cl)cc3F)CC2)cc1` [Compound A-637, N-{2-[4-(4-chloro-2-fluorophenyl)piperidin-1-yl]phenyl}-4-(2-hydroxyethanesulfonyl)benzene-1-sulfonamide] here?
Answer: ≥ 10 µM

Question: With `CC1(C)CC2(CCN(c3ccccc3NS(=O)(=O)c3ccc4c(c3)CC(C)(C)C4=O)CC2)CO1` [Compound A-638, N-(2-{3,3-dimethyl-2-oxa-8-azaspiro[4.5]decan-8-yl}phenyl)-2,2-dimethyl-1-oxo-2,3-dihydro-1H-indene-5-sulfonamide] as the molecule, how does the AC50 read?
Answer: 2.01 to 8 µM

Question: How did the AC50 turn out when `COCC1(C)CCN(c2ccccc2NS(=O)(=O)c2ccc3c(c2)CC(C)(C)C3=O)CC1` [Compound A-639, N-{2-[4-(methoxymethyl)-4-methylpiperidin-1-yl]phenyl}-2,2-dimethyl-1-oxo-2,3-dihydro-1H-indene-5-sulfonamide] was run?
Answer: ≥ 10 µM

Question: `CC1(C)Cc2cc(S(=O)(=O)Nc3ccccc3N3CCCC34CCCOC4)ccc2O1` (stereo not drawn) [Compound A-640, 2,2-dimethyl-N-(2-{7-oxa-1-azaspiro[4.5]decan-1-yl}phenyl)-2,3-dihydro-1-benzofuran-5-sulfonamide] was tested. Which AC50 did it give?
Answer: 2.01 to 8 µM

Question: `COCC1(C)CCN(c2ccccc2NS(=O)(=O)c2ccc(C(=O)C(C)C)cc2)CC1` [Compound A-641, N-{2-[4-(methoxymethyl)-4-methylpiperidin-1-yl]phenyl}-4-(2-methylpropanoyl)benzene-1-sulfonamide] was tested. Which AC50 did it give?
Answer: 8.01 to 9.99 µM

Question: `COCC1(C)CCN(c2ccccc2NS(=O)(=O)Cc2ccc(C)c(C)c2)CC1` [Compound A-642, 1-(3,4-dimethylphenyl)-N-{2-[4-(methoxymethyl)-4-methylpiperidin-1-yl]phenyl}methanesulfonamide] was tested. Which AC50 did it give?
Answer: ≤ 2 µM

Question: How did the AC50 turn out when `COCC1(C)CCN(c2ccccc2NS(=O)(=O)c2cccc(C3CC3)c2)CC1` [Compound A-643, 3-cyclopropyl-N-{2-[4-(methoxymethyl)-4-methylpiperidin-1-yl]phenyl}benzene-1-sulfonamide] was run?
Answer: ≤ 2 µM

Question: Which AC50 does the source give for `COCC1(C)CCN(c2ccccc2NS(=O)(=O)c2ccc3c(c2)CCC(C(F)F)O3)CC1` (stereo not drawn) [Compound A-644, 2-(difluoromethyl)-N-{2-[4-(methoxymethyl)-4-methylpiperidin-1-yl]phenyl}-3,4-dihydro-2H-1-benzopyran-6-sulfonamide] here?
Answer: 2.01 to 8 µM

Question: Which AC50 does the source give for `COCC1(C)CCN(c2ccccc2NS(=O)(=O)c2ccc3c(c2)COC3)CC1` [Compound A-645, N-{2-[4-(methoxymethyl)-4-methylpiperidin-1-yl]phenyl}-1,3-dihydro-2-benzofuran-5-sulfonamide] here?
Answer: 8.01 to 9.99 µM

Question: For `COCC1(C)CCN(c2ccccc2NS(=O)(=O)Cc2ccc(C)c(F)c2)CC1` [Compound A-646, 1-(3-fluoro-4-methylphenyl)-N-{2-[4-(methoxymethyl)-4-methylpiperidin-1-yl]phenyl}methanesulfonamide], which AC50 is on record?
Answer: 2.01 to 8 µM

Question: For `COCC1(C)CCN(c2ccccc2NS(=O)(=O)Cc2ccc(C(F)F)cc2)CC1` [Compound A-647, 1-[4-(difluoromethyl)phenyl]-N-{2-[4-(methoxymethyl)-4-methylpiperidin-1-yl]phenyl}methanesulfonamide], which AC50 is on record?
Answer: 8.01 to 9.99 µM

Question: How did the AC50 turn out when `COCC1(C)CCN(c2ccccc2NS(=O)(=O)Cc2cc(C)ccc2F)CC1` [Compound A-648, 1-(2-fluoro-5-methylphenyl)-N-{2-[4-(methoxymethyl)-4-methylpiperidin-1-yl]phenyl}methanesulfonamide] was run?
Answer: ≤ 2 µM

Question: Which AC50 does the source give for `COCC1(C)CCN(c2ccccc2NS(=O)(=O)C2(c3ccccc3)CC2)CC1` [Compound A-649, N-{2-[4-(methoxymethyl)-4-methylpiperidin-1-yl]phenyl}-1-phenylcyclopropane-1-sulfonamide] here?
Answer: 2.01 to 8 µM

Question: `COCC1(C)CCN(c2ccccc2NS(=O)(=O)c2ccc(C3CC3(F)F)cc2)CC1` (stereo not drawn) [Compound A-650, 4-(2,2-difluorocyclopropyl)-N-{2-[4-(methoxymethyl)-4-methylpiperidin-1-yl]phenyl}benzene-1-sulfonamide] was tested. Which AC50 did it give?
Answer: ≤ 2 µM

Question: With `COCC1(C)CCN(c2ccccc2NS(=O)(=O)c2cccc(C3CC3(F)F)c2)CC1` (stereo not drawn) [Compound A-651, 3-(2,2-difluorocyclopropyl)-N-{2-[4-(methoxymethyl)-4-methylpiperidin-1-yl]phenyl}benzene-1-sulfonamide] as the molecule, how does the AC50 read?
Answer: ≤ 2 µM

Question: For `CN(C)S(=O)(=O)c1ccc(S(=O)(=O)Nc2cccc(Cl)c2N2CCCCC2)cc1` [Compound A-652, N4-[3-chloro-2-(piperidin-1-yl)phenyl]-N1,N1-dimethylbenzene-1,4-disulfonamide], which AC50 is on record?
Answer: ≤ 2 µM

Question: With `CN(C)S(=O)(=O)c1ccc(S(=O)(=O)Nc2ccccc2N2CCC3(CC2)COC(C)(C)C3)c(F)c1` [Compound A-653, N4-(2-{3,3-dimethyl-2-oxa-8-azaspiro[4.5]decan-8-yl}phenyl)-3-fluoro-N1,N1-dimethylbenzene-1,4-disulfonamide] as the molecule, how does the AC50 read?
Answer: 2.01 to 8 µM
